Values quoted from earlier work, collected in patent publication US20070184084A1, “IMPLANTABLE ELASTOMERIC CAPROLACTONE DEPOT COMPOSITIONS AND USES THEREOF” (priority 2003, published 2007).

Settings: reported value

solubility in water: 7.17 grams in 100 ml of water
Structure (SMILES): CC(=O)OCC(COC(C)=O)OC(C)=O [triacetin]
